Patent US20220151993A1, “TREATMENT OF ANXIETY AND DEPRESSION” (NEW YORK UNIVERSITY, priority 2020, published 2022)

Tests used:
Assay type in all cases: in vivo, human
[1] = tested on: patients with cancer-related psychiatric and existential distress; experiment: Hospital Anxiety and Depression Scale (HADS), long-term follow-up of psilocybin-assisted psychotherapy trial; details: for HADS Depression / HADS Anxiety / HADS Total: single 0.3 mg/kg dose with psychotherapy; for HADS Depression: baseline 5.88; for HADS Anxiety: baseline 10.56; for HADS Total: baseline 16.45
Description: (§1) The present example assesses the long-term effects of a single dose of psilocybin (0.3 mg/kg) in conjunction with psychotherapy in patients with cancer-related psychiatric and existential distress.
(§2) 29 participants were randomly assigned to one of two groups: psilocybin (0.3 mg/kg) on the first medication session followed by niacin (250 mg) on the second session (i.e. psilocybin-first group), or niacin (250 mg) on the first medication session followed by psilocybin (0.3 mg/kg) on the second session (i.e. niacin-first group). Psilocybin and niacin were administered in identically appearing gelatin capsules.
(§3) Participants received three 2-hour preparatory psychotherapy sessions in order to review the purpose and intention of participation in the study, treatment goals, and structure of the treatment sessions. Medications were administered in 8-hour treatment sessions which included a discussion of the participant's subjective experience with the treatment team to consolidate the memory of the experience and to begin the process of post-integrative psychotherapy. Participants also received three 2-hour post-medication integration sessions (repeated after the second dosing session) to further consolidate the memory of the experience and to continue the process of psychological integration. All psychotherapy treatment sessions were delivered by a dyadic therapy team trained in a blend of psychotherapies with an evidence base to support their use in cancer patients (drawing upon principles of palliative care therapy, existential psychotherapy, cognitive-behavioural therapy, psychoanalysis therapy, and transpersonal psychology) and were taught about the safety and clinical pharmacology of psilocybin. Each therapy dyad underwent six confidential one-to-one sessions to build their alliance and exchange ideas about psychedelic therapy. The trial employed a crossover design at seven weeks following the first drug administration, with an outcome assessment at 6.5 months (26 weeks) following the second drug administration (i.e. after the crossover).
(§4) Two long-term follow ups (LTFUs) were carried out to assess the continued effect of psilocybin. Of the original 29 participants, all 16 participants who were not deceased at the time of LTFU were contacted (the remaining 13 participants were deceased). Of the 16 participants who were contacted, 15 agreed to participate in the LTFU and completed measures through a secure online portal. One participant died (from cancer-related complications) after completing the first LTFU and prior to the second LTFU, leaving us with 14 participants at the second LTFU. The first and second LTFUs occurred on average 3.2 years (range 2.3-4.5 years) and 4.5 years (range 3.5-5.5 years) following the participants' psilocybin dosing date, respectively.
(§5) Primary outcomes (anxiety and depression) were measured according to the following methods: • Hospital Anxiety and Depression Scale (HADS) (Zigmond and Snaith, 1983)—this is widely used in hospital settings to screen for the severity of anxiety and depression. It contains 14 questions rated on a four-point scale (total score (HAD-T) ranges from […]). Subscale scores can be calculated for depression (HADS-D) and anxiety (HADS-A). […] The HADS has shown good reliability (Cronbach's a ranging from 0.80-0.93) and has been well validated (Herrmann, 1997). • Beck Depression Inventory-II (BDI-II) (Beck et al., 1988)—a widely used self-report screening measure for depression. The BDI-II consists of 21 questions about depressive symptoms experienced over the past two weeks rated on a […] scale (total score ranges from 0-63). Scores above 12 indicate possible clinical depression. This measure has shown good reliability (internal consistency of 0.90) and factorial validity (Storch et al. 2004). • Spielberger State-Trait Anxiety Inventory (STAI) (Spielberger, 1983)—a well-known measure of anxiety consisting of scales for state (STAI-S) and trait-level anxiety (STAI-T). […]

[2] = tested on: patients with cancer-related psychiatric and existential distress; experiment: Beck Depression Inventory-II (BDI-II), long-term follow-up; details: single 0.3 mg/kg dose with psychotherapy, baseline 14.19
Description: as §1, §2
as §3, with “Each therapy dyad underwent six confidential one-to-one sessions to build their alliance and exchange ideas about psychedelic therapy. The trial employed a crossover design at seven weeks following the first drug administration, with an outcome assessment at 6.5 months (26 weeks) following the second drug administration (i.e. after the crossover).” left out
Primary outcomes (anxiety and depression) were measured according to the following methods: • Hospital Anxiety and Depression Scale (HADS) (Zigmond and Snaith, 1983)—this is widely used in hospital settings to screen for the severity of anxiety and depression. […] Subscale scores can be calculated for depression (HADS-D) and anxiety (HADS-A). […]

[3] = tested on: patients with cancer-related psychiatric and existential distress; experiment: Death Anxiety Scale (DAS), long-term follow-up; details: single 0.3 mg/kg dose with psychotherapy, baseline 8.06
Description: as §1, §2
as §3, with “Each therapy dyad underwent six confidential one-to-one sessions to build their alliance and exchange ideas about psychedelic therapy. The trial employed a crossover design at seven weeks following the first drug administration, with an outcome assessment at 6.5 months (26 weeks) following the second drug administration (i.e. after the crossover).” left out
Cancer-related existential distress (demoralization, hopelessness, attitudes and effects associated with disease progression and death) was assessed using the following methods: • The Death Anxiety Scale (DAS) (Templer, 1970)—a 15-item measure that has been used most frequently to assess death anxiety. Items are scored “true” and “false” and then scored as one and zero, respectively. […]

[4] = tested on: patients with cancer-related psychiatric and existential distress; experiment: Primary outcome measures (anxiety and depression) combined: effect sizes, clinical response and remission rates
Description: as §1, §2, §3, §4, §5

[5] = mean score at 3.2 years, p < 0.001 vs baseline
[6] = mean score at 4.5 years, p < 0.001 vs baseline
[7] = mean score at 6.5-8 months, p < 0.001 vs baseline
[8] = mean score at 3.2 years, p < 0.01 vs baseline
[9] = second LTFU point (mean 4.5 years)

## CN(C)CCc1c[nH]c2cccc(OP(=O)(O)O)c12 [psilocybin, [3-(2-dimethylaminoethyl)-1H-indol-4-yl] dihydrogen phosphate]
[1]; Spearman, second LTFU subtracted from two-weeks post-psilocybin dose scores, p<0.01
  correlation (r) of length of time between psilocybin session and follow-up with HAD-D depression change score: 0.70
[1]; [5]
  HADS Depression: 2.25
  HADS Anxiety: 5.50
  HADS Total: 7.13
[1]; mean score at 4.5 years, p < 0.01 vs baseline
  HADS Depression: 2.30
[1]; [6]
  HADS Anxiety: 4.99
  HADS Total: 7.34
[1]; [7]
  HADS Depression: 1.75
  HADS Anxiety: 2.81
  HADS Total: 4.38
[1]; second LTFU point (4.5 years, n=14), 50% or greater reduction relative to baseline
  participants with clinically significant reductions in global psychological distress on the HADS-T: Seventy-one
[1]; second LTFU point (4.5 years, n=14), response = 50% or greater reduction relative to baseline
  participants with clinically significant anxiolytic response on the HADS-A: 57%
[2]; [8]
  Beck Depression: 7.75
[2]; [6]
  Beck Depression: 5.45
[2]; [7]
  Beck Depression: 5.09
[3]; [8]
  Death anxiety: 5.68
[3]; mean score at 4.5 years, p < 0.05 vs baseline
  Death anxiety: 5.75
[3]; mean score at 6.5-8 months, p < 0.01 vs baseline
  Death anxiety: 6.09
[4]; 4.5 year time point
  participants meeting criteria for clinical antidepressant or anxiolytic response and remission: 60-80%
[4]; 6.5-month point
  mean Cohen's d, reductions in symptoms since baseline on primary measures (anxiety and depression): 1.90
  range of Cohen's d, primary measures (anxiety and depression): 1.27-2.67
[4]; 6.5 months after psilocybin administration
  participants meeting criteria for clinical antidepressant or anxiolytic response and remission: 60-80%
[4]; first LTFU (mean 3.2 years)
  mean Cohen's d, reductions in symptoms since baseline on primary measures (anxiety and depression): 1.30
  range of Cohen's d, primary measures (anxiety and depression): 0.93-1.97
[4]; second LTFU (4.5 years, n=14), 50% or greater reduction plus HADS-D≤7 or BDI≤12
  depression symptom remission rates: 50-79%
[4]; second LTFU (4.5 years, n=14), 50% or greater reduction relative to baseline
  percentages of clinical responses for depression on the HADS-D and BDI: 57-79%
[4]; [9]
  mean Cohen's d, reductions in symptoms since baseline on primary measures (anxiety and depression): 1.41
  range of Cohen's d, primary measures (anxiety and depression): 0.86-1.89
